Results published in patent publication US8962843B2, “1,3,4-oxadiazole and 1,3,4-thiadiazole beta-lactamase inhibitors” (priority 2012, dated 2015).
Structures can show the parent of a compound that is named as a salt.

Legend:
[1] = tested on: bacterial strains that express the class D cephalosporinase OXA-15; experiment: Standard BLI potentiation MIC / synergy MIC assays, strains expressing OXA-15; format: cell-based, E. coli; settings: in combination with a β-lactam; comparator Avibactam (CCC)
Method: (§1) The experimental protocol was performed according to Clinical and Laboratory Standards Institute (CLSI) guidelines with modifications as described below (CLSI guidelines can be derived from the CLSI document M07-A9 published in January 2012: “Methods for Dilution Antimicrobial Susceptibility Tests for Bacteria That Grow Aerobically; Approved Standard-Ninth Edition”).
(§2) To prepare for MIC testing, frozen glycerol stocks of clinical isolates (Klebsiella pneumoniae, Eschericia coli, Enterobacter spp, Citrobacter spp, or Pseudomonas aeruginosa) were used to streak for isolated colonies on rich, non-selective, tryptic soy agar containing 5% sheep's blood (TSAB). Frozen glycerol stocks of laboratory engineered, isogenic E. coli strains, which contain cloned β-lactamase expressing plasmids were used to streak for isolated colonies on rich, selective LB agar supplemented with 25 μg/mL tetracycline to maintain the plasmid. All strains were incubated at 37° C. for 18-24 hrs.
(§3) On the day of testing, primary cultures were started by scraping off 5-10 colonies from the TSAB plates containing clinical strains or the tetracycline supplemented LB plates containing engineered strains. The clinical strain material was suspended in ˜5 mL of cation adjusted Mueller Hinton Broth (CAMHB) in 14 mL culture tubes. The engineered strain material was suspended in CAMHB (supplemented with 25 μg/mL tetracycline) in 14 mL culture tubes. All strains were incubated at 37° C. with aeration (200 rpm) for ˜2 hrs until the optical density at 600 nm (OD600) was >0.1.
(§4) The two compound components of the assay were each diluted in CAMHB and added to the 96-well broth microdilution assay plates. 50 μL of the β-lactam was added to each well of the assay plate in 2-fold dilutions with final concentrations ranging from 128 to 0.13 μg/mL. 25 μL of the BLI compound was added to all wells in the broth microdilution plates at a final concentration of 4 μg/mL. Inoculum cultures were prepared by standardizing the primary cultures to OD600=0.1 and then adding 20 μL of the adjusted primary culture per 1 mL CAMHB for clinical strains or CAMHB (supplemented with tetracycline at 100 μg/mL) for engineered strains, so that the final inoculum density was ˜10^5 colony forming units per milliliter. Diluted inoculum cultures were used to inoculate 25 μl, per well in 96-well broth microdilution assay plates. The final volume of each well was 100 μL and contained a β-lactam at different concentrations, a BLlcompound at 4 μg/mL concentration, the bacterial culture at an OD600 of approximately 0.001 and when necessary tetracycline at 25 μg/mL.
(§5) Plates were incubated for 18-20 hours at 37° C. with aeration (200 rpm). Following incubation, growth was confirmed visually placing plates over a viewing apparatus (stand with a mirror underneath) and then OD600 was measured using a SpectraMax 340PC384 plate reader (Molecular Devices, Sunnyvale, Calif.). Growth was defined as turbidity that could be detected with the naked eye or achieving minimum OD600 of 0.1. MIC values were defined as the lowest concentration producing no visible turbidity.
(§6) The synergy MIC (sMIC) assay determines the concentration of the BLI required to potentiate the activity of a fixed concentration of a β-lactam antibiotic against β-lactamase producing bacterial strains. The experimental protocol was performed according to Clinical and Laboratory Standards Institute (CLSI) guidelines with modifications as described below (CLSI guidelines can be derived from the CLSI document M07-A9 published in January 2012: “Methods for Dilution Antimicrobial Susceptibility Tests for Bacteria That Grow Aerobically; Approved Standard-Ninth Edition”). […]

[2] = tested on: bacterial strains that express KPC β-lactamases; experiment: Standard BLI potentiation MIC / synergy MIC assays, strains expressing KPC β-lactamases; format: cell-based; settings: in combination with a β-lactam; comparator Avibactam
Method: as §1, §2, §3, §4, §5, §6

Q: What does the source list for `O=C1N2C[C@@H](CC[C@H]2c2nnco2)N1OS(=O)(=O)O` [Compound 701, (2S,5R)-2-(1,3,4-oxadiazol-2-yl)-7-oxo-1,6-diazabicyclo[3.2.1]octan-6-yl hydrogen sulfate]?
A: activity against bacterial strains that express the class D cephalosporinase OXA-15, compared with Avibactam [1]: more active than Avibactam; activity and/or spectrum of activity against bacterial strains that express KPC β-lactamases, compared with Avibactam [2]: more active than Avibactam for at least one, bacterial strain that expresses KPC β-lactamase and/or show a better spectrum of activity

Q: Which results are given for `NCc1nnc([C@@H]2CC[C@@H]3CN2C(=O)N3OS(=O)(=O)O)o1` [Compound 702, (2S,5R)-2-(5-(aminomethyl)-1,3,4-oxadiazol-2-yl)-7-oxo-1,6-diazabicyclo[3.2.1]octan-6-yl hydrogen sulfate]?
A: activity against bacterial strains that express the class D cephalosporinase OXA-15, compared with Avibactam [1]: more active than Avibactam; activity and/or spectrum of activity against bacterial strains that express KPC β-lactamases, compared with Avibactam [2]: more active than Avibactam for at least one, bacterial strain that expresses KPC β-lactamase and/or show a better spectrum of activity

Q: For `NCCc1nnc([C@@H]2CC[C@@H]3CN2C(=O)N3OS(=O)(=O)O)o1` [Compound 703, (2S,5R)-2-(5-(2-aminoethyl)-1,3,4-oxadiazol-2-yl)-7-oxo-1,6-diazabicyclo[3.2.1]octan-6-yl hydrogen sulfate], which “activity against bacterial strains that express the class D cephalosporinase OXA-15, compared with Avibactam” value [1] is on record?
A: more active than Avibactam

Q: And the “activity and/or spectrum of activity against bacterial strains that express KPC β-lactamases, compared with Avibactam” value [2]?
A: more active than Avibactam for at least one, bacterial strain that expresses KPC β-lactamase and/or show a better spectrum of activity

Q: Which “activity against bacterial strains that express the class D cephalosporinase OXA-15, compared with Avibactam” value [1] does the source give for `N=C(N)NCCc1nnc([C@@H]2CC[C@@H]3CN2C(=O)N3OS(=O)(=O)O)o1` [Compound 705, (2S,5R)-2-(5-(2-guanidinoethyl)-1,3,4-oxadiazol-2-yl)-7-oxo-1,6-diazabicyclo[3.2.1]octan-6-yl hydrogen sulfate] here?
A: more active than Avibactam

Q: What about the “activity and/or spectrum of activity against bacterial strains that express KPC β-lactamases, compared with Avibactam” value [2] of the same molecule?
A: more active than Avibactam for at least one, bacterial strain that expresses KPC β-lactamase and/or show a better spectrum of activity

Q: Which “activity against bacterial strains that express the class D cephalosporinase OXA-15, compared with Avibactam” value [1] does the source give for `NC(=O)c1nnc([C@@H]2CC[C@@H]3CN2C(=O)N3OS(=O)(=O)O)o1` [Compound 706, (2S,5R)-2-(5-carbamoyl-1,3,4-oxadiazol-2-yl)-7-oxo-1,6-diaza-bicyclo[3.2.1]octan-6-yl hydrogen sulfate] here?
A: more active than Avibactam

Q: What about the “activity and/or spectrum of activity against bacterial strains that express KPC β-lactamases, compared with Avibactam” value [2] of the same molecule?
A: more active than Avibactam for at least one, bacterial strain that expresses KPC β-lactamase and/or show a better spectrum of activity

Q: With `O=C1N2C[C@@H](CC[C@H]2c2nnc(C3CNC3)o2)N1OS(=O)(=O)O` [Compound 708, (2S,5R)-2-(5-(azetidin-3-yl)-1,3,4-oxadiazol-2-yl)-7-oxo-1,6-diazabicyclo[3.2.1]octan-6-yl hydrogen sulfate] as the molecule, how does the “activity against bacterial strains that express the class D cephalosporinase OXA-15, compared with Avibactam” value [1] read?
A: more active than Avibactam

Q: What about the “activity and/or spectrum of activity against bacterial strains that express KPC β-lactamases, compared with Avibactam” value [2] of the same molecule?
A: more active than Avibactam for at least one, bacterial strain that expresses KPC β-lactamase and/or show a better spectrum of activity

Q: Which results are given for `N=C(N)N1CC(c2nnc([C@@H]3CC[C@@H]4CN3C(=O)N4OS(=O)(=O)O)o2)C1` [Compound 709, (2S,5R)-2-(5-(1-carbamimidoylazetidin-3-yl)-1,3,4-oxadiazol-2-yl)-7-oxo-1,6-diazabicyclo[3.2.1]octan-6-yl hydrogen sulfate]?
A: activity against bacterial strains that express the class D cephalosporinase OXA-15, compared with Avibactam [1]: more active than Avibactam; activity and/or spectrum of activity against bacterial strains that express KPC β-lactamases, compared with Avibactam [2]: more active than Avibactam for at least one, bacterial strain that expresses KPC β-lactamase and/or show a better spectrum of activity

Q: What does the source list for `O=C1N2C[C@@H](CC[C@H]2c2nnc(C3CCNC3)o2)N1OS(=O)(=O)O` (stereo partly drawn) [Compound 710, (2S,5R)-7-oxo-2-(5-(pyrrolidin-3-yl)-1,3,4-oxadiazol-2-yl)-1,6-diazabicyclo[3.2.1]octan-6-yl hydrogen sulfate]?
A: activity against bacterial strains that express the class D cephalosporinase OXA-15, compared with Avibactam [1]: more active than Avibactam; activity and/or spectrum of activity against bacterial strains that express KPC β-lactamases, compared with Avibactam [2]: more active than Avibactam for at least one, bacterial strain that expresses KPC β-lactamase and/or show a better spectrum of activity

Q: Which “activity against bacterial strains that express the class D cephalosporinase OXA-15, compared with Avibactam” value [1] does the source give for `O=C1N2C[C@@H](CC[C@H]2c2nnc(C3CCNCC3)o2)N1OS(=O)(=O)O` [Compound 711, (2S,5R)-7-oxo-2-(5-(piperidin-4-yl)-1,3,4-oxadiazol-2-yl)-1,6-diazabicyclo[3.2.1]octan-6-yl hydrogen sulfate] here?
A: more active than Avibactam

Q: What about the “activity and/or spectrum of activity against bacterial strains that express KPC β-lactamases, compared with Avibactam” value [2] of the same molecule?
A: more active than Avibactam for at least one, bacterial strain that expresses KPC β-lactamase and/or show a better spectrum of activity

Q: `NCCCc1nnc([C@@H]2CC[C@@H]3CN2C(=O)N3OS(=O)(=O)O)o1` [Compound 720, (2S,5R)-2-(5-(3-aminopropyl)-1,3,4-oxadiazol-2-yl)-7-oxo-1,6-diazabicyclo[3.2.1]octan-6-yl hydrogen sulfate] was tested. Which “activity against bacterial strains that express the class D cephalosporinase OXA-15, compared with Avibactam” value [1] did it give?
A: more active than Avibactam

Q: What about the “activity and/or spectrum of activity against bacterial strains that express KPC β-lactamases, compared with Avibactam” value [2] of the same molecule?
A: more active than Avibactam for at least one, bacterial strain that expresses KPC β-lactamase and/or show a better spectrum of activity

Q: `N=C(N)NCc1nnc([C@@H]2CC[C@@H]3CN2C(=O)N3OS(=O)(=O)O)s1` [Compound 721, (2S,5R)-2-(5-(guanidinomethyl)-1,3,4-thiadiazol-2-yl)-7-oxo-1,6-diazabicyclo[3.2.1]octan-6-yl hydrogen sulfate] was tested. Which “activity against bacterial strains that express the class D cephalosporinase OXA-15, compared with Avibactam” value [1] did it give?
A: more active than Avibactam

Q: And the “activity and/or spectrum of activity against bacterial strains that express KPC β-lactamases, compared with Avibactam” value [2]?
A: more active than Avibactam for at least one, bacterial strain that expresses KPC β-lactamase and/or show a better spectrum of activity

Q: How did the “activity against bacterial strains that express the class D cephalosporinase OXA-15, compared with Avibactam” value [1] turn out when `CNCCc1nnc([C@@H]2CC[C@@H]3CN2C(=O)N3OS(=O)(=O)O)o1` [Compound 722, (2S,5R)-2-(5-(2-(methylamino)ethyl)-1,3,4-oxadiazol-2-yl)-7-oxo-1,6-diazabicyclo[3.2.1]octan-6-yl hydrogen sulfate] was run?
A: more active than Avibactam

Q: And the “activity and/or spectrum of activity against bacterial strains that express KPC β-lactamases, compared with Avibactam” value [2]?
A: more active than Avibactam for at least one, bacterial strain that expresses KPC β-lactamase and/or show a better spectrum of activity

Q: What does the source list for `N=C(N)NCC1(c2nnc([C@@H]3CC[C@@H]4CN3C(=O)N4OS(=O)(=O)O)o2)CC1` [Compound 723, (2S,5R)-2-(5-(1-(guanidinomethyl)cyclopropyl)-1,3,4-oxadiazol-2-yl)-7-oxo-1,6-diazabicyclo[3.2.1]octan-6-yl hydrogen sulfate]?
A: activity against bacterial strains that express the class D cephalosporinase OXA-15, compared with Avibactam [1]: more active than Avibactam; activity and/or spectrum of activity against bacterial strains that express KPC β-lactamases, compared with Avibactam [2]: more active than Avibactam for at least one, bacterial strain that expresses KPC β-lactamase and/or show a better spectrum of activity

Q: `NC1CCN(CCc2nnc([C@@H]3CC[C@@H]4CN3C(=O)N4OS(=O)(=O)O)o2)CC1` [Compound 775, (2S,5R)-2-(5-(2-(4-aminopiperidin-1-ybethyl)-1,3,4-oxadiazol-2-yl)-7-oxo-1,6-diazabicyclo[3.2.1]octan-6-yl hydrogen sulfate] was tested. Which “activity and/or spectrum of activity against bacterial strains that express KPC β-lactamases, compared with Avibactam” value [2] did it give?
A: more active than Avibactam for at least one, bacterial strain that expresses KPC β-lactamase and/or show a better spectrum of activity
